Measured values reported in patent US6197768A, “Pyridocarbazole derivatives having cgmp-pde inhibitory activity” (Mochida Pharmaceutical Co., Ltd., priority 1996, dated 2001).
pIC50: −log10 of the molar value. Where a name gives a salt, the structure may show the parent alone.

Key:
[1] = system: pulmonary arterial pressure; assay: Pulmonary Arterial Pressure Lowering Action in anesthetized dogs; type: in vivo, adult mongrel dogs
Protocol: (§1) Adult mongrel dogs were anesthetized by intramuscular administration of 20 mg/kg of ketamine and intravenous administration of 20 mL/kg of physiological saline containing 5 mg/mL of α-chloralose; under artificial respiration, the aortic pressure was measured with a catheter inserted into the femoral artery and the pulmonary arterial pressure with a Swan-Ganz catheter inserted into the pulmonary artery. Anesthesia was maintained by intravenous administration of physiological saline containing 5 mg/mL of α-chloralose at a rate of 5 mL/kg per hour. Comparison was made between nitroglycerin, nifedipine and test compounds which were administered intravenously at doses of 0.01-1 mg/kg. Each test compound was dissolved in dimethylformamide (DMF) and sequentially diluted with polyethylene glycol 200 and water to give respective proportions of 20, 50 and 30% (v/v) and administrated by injection into the right femoral vein in a volume of 0.3 mL/kg. The results are shown in Table 2 below, in which maximal percent decreases in the pulmonary arterial pressure and aortic pressure are listed to show the effectiveness of each test compound in lowering the pulmonary arterial pressure and the systemic blood pressure, respectively.

systemic blood pressure = assay: Systemic blood (aortic) pressure lowering in anesthetized dogs; type: in vivo, adult mongrel dogs; conditions: Canis lupus familiaris, iv, read-out: Reduction in systemic blood pressure
Protocol: as §1

[2] = system: vascular smooth muscle cells isolated from aortic media; conditions: Garg et al. 1989; Nakaki et al. 1990; cited from earlier work
coronary artery diameter = assay: Coronary Artery Diameter Increasing Action in anesthetized dogs; type: in vivo, adult mongrel dogs; conditions: for Coronary artery diameter (relative to nitroglycerin): maximal change as ratio to 10 μg/kg nitroglycerin
Protocol: (§2) Adult mongrel dogs were thoracotomized under anesthesia with α-chloralose and the circumflex branch of the left coronary artery was […]; a pair of ultrasonic crystals were attached to the tunica extima for measuring the diameter of the coronary artery whereas an electromagnetic flow probe was attached to the peripheral side to measure the coronary blood flow. Nitroglycerin, dipyridamole and each test compound were administered intravenously for comparison. Each test compound was dissolved in dimethylformamide and diluted sequentially with polyethylene glycol 200 and water to give respective proportions of 20, 50 and 30% (v/v). The results are shown in Table 3, in which the maximal changes in the diameter of the coronary artery and the coronary blood flow are expressed in terms of the ratio to the respective changes caused by 10 μg/kg of nitroglycerin.

coronary blood flow = assay: Coronary blood flow in anesthetized dogs; type: in vivo, adult mongrel dogs; conditions: maximal change as ratio to 10 μg/kg nitroglycerin
Protocol: as §2

PDE type V = target: T1, PDE type V (Canis lupus familiaris, UniProt O77746); assay: PDE Inhibiting Activity, type V (cGMP-PDE); type: biochemical, dog (canine aorta); conditions: PDE type V from canine aorta, 1 μM substrate, pH 7.5; read-out: Inhibition Activity IC50, Type V
T1 construct: PDE was purified from the aorta in a dog; from tissue; host or cells: dog aorta
Protocol: (§3) On the basis of the method of Lugnier et al. (Biochem. Pharmacol., 35, 1743-1751, 1986), PDE was purified from the aorta in a dog. The canine aorta was minced and homogenized with a Waring Blender and a glass homogenizer in six volumes of a Tris-HCl buffer solution (pH 7.5, 20 mM) containing 2 mM magnesium acetate, 5 mM ethylenediaminetetraacetic acid (EDTA), 100 μg/mL of phenylmethylsulforyl fluoride and 15 mM 2-mercaptoethanol (2-ME), and centrifuged at 1200 xg for 30 min. The supernatant was separated and salted out with ammonium sulfate which was added to 45% saturation. The resulting precipitated fraction was resuspended in a Tris-HCl buffer solution (pH 7.5, 20 mM) containing 2 mM magnesium acetate and 1 mM 2-ME, dialyzed overnight and applied to a DEAE-trisacryl column (DEAE […] M:IBF). By elution with a sodium chloride gradient (0-0.4 M), PDE types V and III were separated from the other isozymes. The supernatant fraction of 45% saturated ammonium sulfate was further mixed with ammonium sulfate to 65% saturation and salted out. The resulting precipitated fraction was similarly applied to the DEAE-trisacryl column and eluted by a sodium chloride gradient (0-0.4 M) so as to separate PDE type I.
The thus obtained PDE types V, III and I were measured for their activity in accordance with the method of Thompson et al. (Adv. Cyclic Nucleotide Res., 10, 69-72, 1979) and the method of Wells et al. (Biochim. Biophys. Acta, 384, 430-443, 1975). Specifically, a purified PDE sample was added to 50 mM Tris-HCl buffer solution (pH 7.5) containing 1 μM of substrate cGMP or cAMP (containing tritium-labelled cGMP or cAMP), 1 mM EGTA and 2 mM magnesium acetate. […] The activity of each test compound was determined as a percentage of the DPE activity measured when it was added as a dimethyl sulfoxide solution (DMSO) and its IC50 (50% inhibition concentration) was calculated by the probit method. […]

PDE type III = target: T2, PDE type III (Canis lupus familiaris, UniProt A0A8I3NYE0); assay: PDE Inhibiting Activity, type III; type: biochemical, dog (canine aorta); conditions: PDE type III from canine aorta, 1 μM substrate, pH 7.5; read-out: Inhibition Activity IC50, Type III
T2 construct: PDE was purified from the aorta in a dog; from tissue; host or cells: dog aorta
T2 sequence (A0A8I3NYE0 1-1135): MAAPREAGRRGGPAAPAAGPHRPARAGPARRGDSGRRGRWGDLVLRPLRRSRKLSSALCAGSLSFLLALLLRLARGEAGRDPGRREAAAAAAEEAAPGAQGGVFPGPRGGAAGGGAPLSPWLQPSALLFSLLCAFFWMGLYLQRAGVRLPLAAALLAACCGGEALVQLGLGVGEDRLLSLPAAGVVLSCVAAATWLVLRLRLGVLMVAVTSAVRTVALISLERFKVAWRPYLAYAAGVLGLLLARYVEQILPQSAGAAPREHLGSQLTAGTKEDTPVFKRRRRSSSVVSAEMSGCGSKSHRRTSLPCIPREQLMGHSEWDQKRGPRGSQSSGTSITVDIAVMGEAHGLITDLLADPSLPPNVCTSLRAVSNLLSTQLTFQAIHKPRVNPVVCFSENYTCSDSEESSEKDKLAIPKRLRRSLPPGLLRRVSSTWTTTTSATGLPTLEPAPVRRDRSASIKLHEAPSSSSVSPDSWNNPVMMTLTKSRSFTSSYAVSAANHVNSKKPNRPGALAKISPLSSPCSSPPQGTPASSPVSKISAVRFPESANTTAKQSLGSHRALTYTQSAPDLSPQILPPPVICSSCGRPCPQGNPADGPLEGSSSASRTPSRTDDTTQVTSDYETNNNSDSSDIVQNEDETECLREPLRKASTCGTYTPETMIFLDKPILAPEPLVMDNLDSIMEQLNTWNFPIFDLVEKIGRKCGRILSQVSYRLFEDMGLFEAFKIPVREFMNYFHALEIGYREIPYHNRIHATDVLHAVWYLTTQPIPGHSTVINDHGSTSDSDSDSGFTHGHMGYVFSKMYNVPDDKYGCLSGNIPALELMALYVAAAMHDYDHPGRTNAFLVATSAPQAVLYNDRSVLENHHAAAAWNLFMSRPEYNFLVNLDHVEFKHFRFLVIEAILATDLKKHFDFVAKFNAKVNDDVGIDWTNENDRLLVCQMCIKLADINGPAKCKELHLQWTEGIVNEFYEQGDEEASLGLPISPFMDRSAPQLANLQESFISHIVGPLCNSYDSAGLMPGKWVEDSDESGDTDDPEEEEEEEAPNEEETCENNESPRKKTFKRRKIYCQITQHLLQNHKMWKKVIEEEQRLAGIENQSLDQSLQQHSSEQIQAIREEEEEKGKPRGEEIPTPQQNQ
Protocol: as §3
(§4) The thus obtained PDE types V, III and I were measured for their activity in accordance with the method of Thompson et al. (Adv. Cyclic Nucleotide Res., 10, 69-72, 1979) and the method of Wells et al. (Biochim. Biophys. Acta, 384, 430-443, 1975). Specifically, a purified PDE sample was added to 50 mM Tris-HCl buffer solution (pH 7.5) containing 1 μM of substrate cGMP or cAMP (containing tritium-labelled cGMP or cAMP), 1 mM EGTA and 2 mM magnesium acetate. For PDE activity measurement, enzymatically produced 5' GMP or 5' AMP was further hydrolyzed into guanosine or adenosine with snake venom and separated from the substrate by means of an ion-exchange resin (Dowex 1-X2), followed by measuring with a scintillation counter. The activity of each test compound was determined as a percentage of the DPE activity measured when it was added as a dimethyl sulfoxide solution (DMSO) and its IC50 (50% inhibition concentration) was calculated by the probit method. The final concentration of DMSO was adjusted to be no more than 2% in consideration of the effect on PDE activity.

PDE type I = assay: PDE Inhibiting Activity, type I; type: biochemical, dog (canine aorta); conditions: PDE type I from canine aorta, 1 μM substrate, pH 7.5; read-out: Inhibition Activity IC50, Type I
Protocol: as §3, §4

SMILES	pIC50 (PDE type V)	pIC50 (PDE type III)	pIC50 (PDE type I)	Coronary artery diameter (relative to nitroglycerin) (coronary artery diameter; 1 mg/kg intravenous)	Coronary blood flow (relative to nitroglycerin) (coronary blood flow; 1 mg/kg intravenous)	further results
O=[N+]([O-])OCC(CO[N+](=O)[O-])O[N+](=O)[O-] [Nitroglycerin, nitroglycerin, reference compound]						inhibition in vivo at 0.01 mg/kg ([1]; Canis lupus familiaris, iv, read-out: Reduction in pulmonary arterial pressure): 19%; pulmonary arterial versus systemic blood pressure lowering (in words) ([1]; intravenous, anesthetized dogs): lowered the systemic blood pressure by greater degrees than the pulmonary arterial pressure; inhibition in vivo at 0.01 mg/kg (systemic blood pressure): 30%; proliferation of cultured vascular smooth muscle cells (in words) [2]: suppressed
OCCN(CCO)c1nc(N2CCCCC2)c2nc(N(CCO)CCO)nc(N3CCCCC3)c2n1 [Dipyridamole, dipyridamole, reference compound]						Coronary artery diameter (relative to nitroglycerin) (coronary artery diameter; 0.03 mg/kg intravenous): 0.17; coronary artery diameter versus coronary blood flow (in words) (coronary artery diameter; intravenous, anesthetized dogs): increased more of the coronary blood flow than the coronary artery diameter; Coronary blood flow (relative to nitroglycerin) (coronary blood flow; 0.03 mg/kg intravenous): 2.66
O=c1ccn2c3ccc(Cl)cc3c3cc(Cl)cc1c32 [Example 264, 2,10-dichlor-4H-pyrido[3,2,1-jk]carbazole-4-one]	7.10	< 4.52	< 4.52			
O=c1c(Cc2cccnc2)cn2c3ccccc3c3cc(O)cc1c32 [Example 155]		5.14	4.32	1.47	0.79	
O=c1c(Cc2cccnc2)cn2c3cc(Br)ccc3c3cc(OCCCO)cc1c32 [Example 278, 9-bromo-2-(3-hydroxyoropyloxy)-5-(3-pyridylmethyl)-4H-pyrido[3,2,1-jk]carbazole-4-one hydrochloride]				1.50	0.04	
CCCOC(=O)COc1cc2c(=O)c(Cc3cccnc3)cn3c4ccc(Br)cc4c(c1)c23 [Example 7, 10-bromo-2-n-propoxycarbonylmethyloxy-5-(3-pyridylmethyl)-4H-pyrido [3,2,1-jk]carbazole-4-one]	8.37	< 4.52	< 4.52			
Nc1nc2c(nc(Br)n2[C@@H]2O[C@@H]3COP(=O)(O)O[C@H]3[C@H]2O)c(=O)[nH]1 [Example 8-bromo-cGMP, 8-bromo-cGMP]						proliferation of cultured vascular smooth muscle cells (in words) [2]: suppressed
O=c1ccn2c3ccc(Cl)cc3c3cccc1c32 [Example 193, 10-chloro-4H-pyrido[3,2,1-jk]carbazole-4-one]		5.16	< 4.00	1.44	1.40	inhibition in vivo at 0.3 mg/kg ([1]; Canis lupus familiaris, iv, 0.3 mg/kg intravenous, anesthetized dogs, maximal percent decrease, read-out: Reduction in pulmonary arterial pressure): 16%; inhibition in vivo at 0.3 mg/kg (systemic blood pressure; 0.3 mg/kg intravenous, anesthetized dogs, maximal percent decrease): 1%
O=C(COc1cc2c(=O)c(Cc3cccnc3)cn3c4ccc(Br)cc4c(c1)c23)OC1CCCCC1 [Example 15]	7.35	4.82	< 4.52			
